Reference: US10738056B2 (Aduro BioTech, Inc., priority 2017, dated 2020)

biological target: Human cGAS amino acids 155-522 (Homo sapiens (Human), UniProt Q8N884); assay: cGAS biochemical activity assay (ATP remaining, Kinase-Glo Max luminescence); conditions: human cGAS 155-522, ATP remaining (Kinase-Glo Max); read-out: cGAS IC50
Sequence (Q8N884 157-522): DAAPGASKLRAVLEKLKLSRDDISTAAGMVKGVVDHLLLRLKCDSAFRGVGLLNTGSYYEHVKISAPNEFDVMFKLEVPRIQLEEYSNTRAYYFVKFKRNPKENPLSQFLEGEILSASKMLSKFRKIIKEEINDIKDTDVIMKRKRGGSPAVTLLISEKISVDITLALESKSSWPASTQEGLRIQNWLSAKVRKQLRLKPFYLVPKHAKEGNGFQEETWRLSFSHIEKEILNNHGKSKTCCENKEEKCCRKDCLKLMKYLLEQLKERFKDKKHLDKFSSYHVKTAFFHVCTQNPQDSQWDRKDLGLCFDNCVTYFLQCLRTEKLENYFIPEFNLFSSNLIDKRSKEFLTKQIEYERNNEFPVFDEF

Row | IC50 [µM] | SMILES
1 | 20 to 250 | COc1cccc2oc(-c3c(C)[nH]c4c(-c5ccccc5)c(C#CC5CC5)nn4c3=O)nc12 [Compound C1228, 2-(cyclopropylethynyl)-6-(4-methoxybenzo[d]oxazol-2-yl)-5-methyl-3-phenylpyrazolo[1,5-a]pyrimidin-7(4H)-one]
2 | 20 to 250 | COCCN(C)C(=O)c1[nH]c2c(-c3ccccc3)c(C(F)(F)F)nn2c(=O)c1-c1nc2c(OC)cccc2o1 [Compound C1179, 6-(4-methoxybenzo[d]oxazol-2-yl)-N-(2-methoxyethyl)-N-methyl-7-oxo-3-phenyl-2-(trifluoromethyl)-4,7-dihydropyrazolo[1,5-a]pyrimidine-5-carboxamide]
3 | 20 to 250 | Cc1[nH]c2c(-c3ccccc3)c(C(F)(F)F)nn2c(=O)c1-c1nc2ccccc2n1CC1CCCC1 [Compound C1235, 6-(1-(cyclopentylmethyl)-1H-benzo[d]imidazol-2-yl)-5-methyl-3-phenyl-2-(trifluoromethyl)pyrazolo[1,5-a]pyrimidin-7(4H)-one]
4 | 20 to 250 | Cc1[nH]c2c(-c3ccccc3)c(C(F)(F)F)nn2c(=O)c1-c1nnc(-c2cccnc2)o1 [Compound D1063, 5-methyl-3-phenyl-6-(5-(pyridin-3-yl)-1,3,4-oxadiazol-2-yl)-2-(trifluoromethyl)pyrazolo[1,5-a]pyrimidin-7(4H)-one]
5 | 20 to 250 | Cc1[nH]c2c(-c3ccccc3)c(C(F)(F)F)nn2c(=O)c1-c1ccncc1 [Compound C1001, 5-methyl-3-phenyl-6-(pyridin-4-yl)-2-(trifluoromethyl)pyrazolo[1,5-a]pyrimidin-7(4H)-one]
6 | > 250 | Cc1[nH]c2c(C3CCCC3)c(C(F)(F)F)nn2c(=O)c1Cc1ccccc1 [Compound C1267, 6-benzyl-3-cyclopentyl-5-methyl-2-(trifluoromethyl)pyrazolo[1,5-a]pyrimidin-7(4H)-one]
7 | 20 to 250 | COc1cccc2c1nc(-c1c(C)[nH]c3c(-c4ccccc4)c(C(F)(F)F)nn3c1=O)n2CC(=O)O [Compound C1221, 2-(4-methoxy-2-(5-methyl-7-oxo-3-phenyl-2-(trifluoromethyl)-4,7-dihydropyrazolo[1,5-a]pyrimidin-6-yl)-1H-benzo[d]imidazol-1-yl)acetic acid]
8 | > 250 | Cc1[nH]c2c(-c3ccccc3)c(C(F)(F)F)nn2c(=O)c1-c1nnc(-c2ccccc2)o1 [Compound D1011, 5-methyl-3-phenyl-6-(5-phenyl-1,3,4-oxadiazol-2-yl)-2-(trifluoromethyl)pyrazolo[1,5-a]pyrimidin-7(4H)-one]
9 | 20 to 250 | Cc1[nH]c2c(-c3ccccc3)c(C(F)(F)F)nn2c(=O)c1-c1nnc(C2CCCN(C(=O)OC(C)(C)C)C2)o1 (centres unmarked) [Compound D1031, tert-butyl 3-(5-(5-methyl-7-oxo-3-phenyl-2-(trifluoromethyl)-4,7-dihydropyrazolo[1,5-a]pyrimidin-6-yl)-1,3,4-oxadiazol-2-yl)piperidine-1-carboxylate]
10 | < 20 | Cc1[nH]c2c(-c3ccccc3)c(C#N)nn2c(=O)c1-c1nc2ccccc2n1C1CCCCC1 [Compound C1276, 6-(1-cyclohexyl-1H-benzo[d]imidazol-2-yl)-5-methyl-7-oxo-3-phenyl-4,7-dihydropyrazolo[1,5-a]pyrimidine-2-carbonitrile]
11 | 20 to 250 | COc1cccn2c(CO)c(-c3c(C)[nH]c4c(-c5ccccc5)c(C(F)(F)F)nn4c3=O)nc12 [Compound C1215, 6-(3-(hydroxymethyl)-8-methoxyimidazo[1,2-a]pyridin-2-yl)-5-methyl-3-phenyl-2-(trifluoromethyl)pyrazolo[1,5-a]pyrimidin-7(4H)-one]
12 | > 250 | Cc1[nH]c2c(C3CCCC3)c(C(F)(F)F)nn2c(=O)c1-c1nnc(C2CCCCC2)o1 [Compound D1017, 6-(5-cyclohexyl-1,3,4-oxadiazol-2-yl)-3-cyclopentyl-5-methyl-2-(trifluoromethyl)pyrazolo[1,5-a]pyrimidin-7(4H)-one]
13 | > 250 | Cc1[nH]c2c(C3CCCC3)c(C(F)(F)F)nn2c(=O)c1-c1ccccc1 [Compound C1266, 3-cyclopentyl-5-methyl-6-phenyl-2-(trifluoromethyl)pyrazolo[1,5-a]pyrimidin-7(4H)-one]
14 | < 20 | Cc1[nH]c2c(-c3ccccc3)c(C#N)nn2c(=O)c1-c1nc2c(OC3CC3)cccc2o1 [Compound C1277, 6-(4-cyclopropoxybenzo[d]oxazol-2-yl)-5-methyl-7-oxo-3-phenyl-4,7-dihydropyrazolo[1,5-a]pyrimidine-2-carbonitrile]
15 | < 20 | COc1cccn2cc(-c3c(C)[nH]c4c(-c5ccccc5)c(C(F)(F)F)nn4c3=O)nc12 [Compound C1044, 6-(8-methoxyimidazo[1,2-a]pyridin-2-yl)-5-methyl-3-phenyl-2-(trifluoromethyl)pyrazolo[1,5-a]pyrimidin-7(4H)-one]

Further lines, the compound ahead of its results:

Row | SMILES | IC50 [µM]
16 | CC(=O)NCCc1c(C)[nH]c2c(-c3ccccc3)c(C(F)(F)F)nn2c1=O [Compound B1013, N-(2-(5-methyl-7-oxo-3-phenyl-2-(trifluoromethyl)-4,7-dihydropyrazolo[1,5-a]pyrimidin-6-yl)ethyl)acetamide] | 20 to 250
17 | Cc1[nH]c2c(-c3ccccc3)c(C(F)(F)F)nn2c(=O)c1C(=O)NC1CCCCC1 [Compound A1010, N-cyclohexyl-5-methyl-7-oxo-3-phenyl-2-(trifluoromethyl)-4,7-dihydropyrazolo[1,5-a]pyrimidine-6-carboxamide] | 20 to 250
18 | COc1cccc(NC(=O)c2c(C)[nH]c3c(-c4ccccc4)c(C(F)(F)F)nn3c2=O)c1Br [Compound A1131, N-(2-bromo-3-methoxyphenyl)-5-methyl-7-oxo-3-phenyl-2-(trifluoromethyl)-4,7-dihydropyrazolo[1,5-a]pyrimidine-6-carboxamide] | 20 to 250
19 | COc1c(Br)cccc1NC(=O)c1c(C)[nH]c2c(-c3ccccc3)c(C(F)(F)F)nn2c1=O [Compound A1130, N-(3-bromo-2-methoxyphenyl)-5-methyl-7-oxo-3-phenyl-2-(trifluoromethyl)-4,7-dihydropyrazolo[1,5-a]pyrimidine-6-carboxamide] | 20 to 250
20 | CO[C@@H]1CCCCC1c1nnc(-c2c(C)[nH]c3c(-c4ccccc4)c(C(F)(F)F)nn3c2=O)o1 (some centres unmarked) [D1046 Iso-2] | < 20
21 | Cc1[nH]c2c(-c3ccccc3)c(C(F)(F)F)nn2c(=O)c1C(=O)Nc1ccnn1C [Compound A1078, 5-methyl-N-(1-methyl-1H-pyrazol-5-yl)-7-oxo-3-phenyl-2-(trifluoromethyl)-4,7-dihydropyrazolo[1,5-a]pyrimidine-6-carboxamide] | 20 to 250
22 | COc1cccc(N(C)C(=O)c2c(C)[nH]c3c(-c4ccccc4)c(C(F)(F)F)nn3c2=O)c1 [Compound A1114, N-(3-methoxyphenyl)-N,5-dimethyl-7-oxo-3-phenyl-2-(trifluoromethyl)-4,7-dihydropyrazolo[1,5-a]pyrimidine-6-carboxamide] | > 250
23 | COc1cccc(NC(=O)c2c(C)[nH]c3c(-c4ccccc4)c(C4CC4)nn3c2=O)c1 [Compound A1123, 2-cyclopropyl-N-(3-methoxyphenyl)-5-methyl-7-oxo-3-phenyl-4,7-dihydropyrazolo[1,5-a]pyrimidine-6-carboxamide] | > 250
24 | Cc1[nH]c2c(-c3ccccc3)c(C(F)(F)F)nn2c(=O)c1CC(=O)Nc1ccccc1N [Compound B1001, N-(2-aminophenyl)-2-(5-methyl-7-oxo-3-phenyl-2-(trifluoromethyl)-4,7-dihydropyrazolo[1,5-a]pyrimidin-6-yl)acetamide] | 20 to 250
25 | Cc1[nH]c2c(-c3ccccc3)c(C(F)(F)F)nn2c(=O)c1C(=O)N[C@H]1CCN(C(=O)OC(C)(C)C)C1 [Compound A1034, tert-butyl (S)-3-(5-methyl-7-oxo-3-phenyl-2-(trifluoromethyl)-4,7-dihydropyrazolo[1,5-a]pyrimidine-6-carboxamido)pyrrolidine-1-carboxylate] | > 250
26 | COc1cncc(NC(=O)c2c(C)[nH]c3c(-c4ccccc4)c(C(F)(F)F)nn3c2=O)n1 [Compound A1098, N-(6-methoxypyrazin-2-yl)-5-methyl-7-oxo-3-phenyl-2-(trifluoromethyl)-4,7-dihydropyrazolo[1,5-a]pyrimidine-6-carboxamide] | 20 to 250
27 | COC1CCCCC1NC(=O)c1c(C)[nH]c2c(-c3ccccc3)c(C(F)(F)F)nn2c1=O (single isomer, unassigned) [Compound A1085, N-(2-methoxycyclohexyl)-5-methyl-7-oxo-3-phenyl-2-(trifluoromethyl)-4,7-dihydropyrazolo[1,5-a]pyrimidine-6-carboxamide] | 20 to 250
28 | Cc1[nH]c2c(-c3ccccc3)c(C(F)(F)F)nn2c(=O)c1C(=O)Nc1ccc(C(F)(F)F)cc1 [Compound A1007, 5-methyl-7-oxo-3-phenyl-2-(trifluoromethyl)-N-(4-(trifluoromethyl)phenyl)-4,7-dihydropyrazolo[1,5-a]pyrimidine-6-carboxamide] | 20 to 250
29 | Cc1[nH]c2c(-c3ccccc3)c(C(F)(F)F)nn2c(=O)c1CCNC(=O)c1ccccc1 [Compound B1014, N-(2-(5-methyl-7-oxo-3-phenyl-2-(trifluoromethyl)-4,7-dihydropyrazolo[1,5-a]pyrimidin-6-yl)ethyl)benzamide] | 20 to 250
30 | Cc1[nH]c2c(-c3ccccc3)c(C(F)(F)F)nn2c(=O)c1C(=O)Nc1cnccc1S(C)(=O)=O [Compound A1109, 5-methyl-N-(4-(methylsulfonyl)pyridin-3-yl)-7-oxo-3-phenyl-2-(trifluoromethyl)-4,7-dihydropyrazolo[1,5-a]pyrimidine-6-carboxamide] | 20 to 250
31 | Cc1[nH]c2c(-c3ccccc3)c(C(F)(F)F)nn2c(=O)c1C(=O)Nc1ccon1 [Compound A1020, N-(isoxazol-3-yl)-5-methyl-7-oxo-3-phenyl-2-(trifluoromethyl)-4,7-dihydropyrazolo[1,5-a]pyrimidine-6-carboxamide] | 20 to 250
32 | Cc1[nH]c2c(-c3ccccc3)c(C(F)(F)F)nn2c(=O)c1C(=O)Nc1[nH]nc(C(F)(F)F)c1C1CCCC1 [Compound A1061, N-(4-cyclopentyl-3-(trifluoromethyl)-1H-pyrazol-5-yl)-5-methyl-7-oxo-3-phenyl-2-(trifluoromethyl)-4,7-dihydropyrazolo[1,5-a]pyrimidine-6-carboxamide] | 20 to 250
